The values that follow are results of earlier work, collected in patent US20040259844A1 (priority 2000, published 2004).

This series deals with retinal ganglion cells.

On to `CN1[C@@H]2CC[C@H]1C[C@@H](OC(=O)C(CO)c1ccccc1)C2` (stereo partly shown) [atropine], for which the “effect on veratridine-increased survival of retinal ganglion cells” value is given as “blocked”.
